The values below come from ChEMBL document CHEMBL5257034, “Hybrid molecules: The privileged scaffolds for various pharmaceuticals” (Eur J Med Chem, 2016).

In brackets after ≈: the same amount, converted by molar mass.

The subject of assay [1] is Mycobacterium tuberculosis. The experiment in a line: Antibacterial activity against Mycobacterium tuberculosis H37Rv assessed as reduction in relative light unit at 5.2 microg/ml incubated for 72 hrs by luciferase reporter phage assay relative to control. It is filed as functional. Also on record: scale not given: the % may be the effect or the level left. Particulars: dose 5.2 µg/ml.

For assay [2], the system named is Candida albicans. The experiment in a line: Antifungal activity against Candida albicans ATCC 2091. It is filed as functional.
The subject of another assay is Pichia kudriavzevii. The experiment in a line: Antifungal activity against Candida krusei ATCC 6258. It is filed as functional.
Assay [3] has as its system Aspergillus niger. Put plainly: Antifungal activity against Aspergillus niger ATCC 9029. It is filed as functional.
Assay [4] has as its system Plasmodium falciparum. The experiment in a line: Antiplasmodial activity against Plasmodium falciparum W2 infected in red blood cells (unknown origin) incubated for 72 hrs by LDH assay. It is filed as functional, organism-based, Red blood cell. Particulars: W2, Erythrocyte.
Another assay concerns Mus musculus. The experiment in a line: Antiinflammatory activity against ear oedema mouse model assessed as inhibition of xylene induced edema. It is filed as functional.
Assay [5] concerns Meyerozyma guilliermondii. Put plainly: Antifungal activity against Meyerozyma guilliermondii assessed as zone of inhibition. It is filed as functional.
Assay [6] concerns Aspergillus niger. The experiment in a line: Antifungal activity against Aspergillus niger assessed as zone of inhibition. It is filed as functional.
Assay [7] deals with Candida albicans. Put plainly: Antifungal activity against Candida albicans assessed as zone of inhibition. It is filed as functional.
The test system of assay [8] is Mycobacterium tuberculosis. The experiment in a line: Antibacterial activity against Mycobacterium tuberculosis H37Rv. It is filed as functional.
Assay [9] concerns Candida albicans. Put plainly: Antifungal activity against Candida albicans. It is filed as functional, organism-based.
Assay [10] concerns Mycobacterium tuberculosis. Put plainly: Antibacterial activity against Mycobacterium tuberculosis. It is filed as functional.
Assay [11] has as its system Mycobacterium tuberculosis. The experiment in a line: Antibacterial activity against Mycobacterium tuberculosis H37Rv by alamar blue method. It is filed as functional. (Alamar Blue is a resazurin reagent that responds to reducing activity.)
In assay [12] the test system is Plasmodium falciparum. The experiment in a line: Antimalarial activity against chloroquine-sensitive Plasmodium falciparum 3D7. It is filed as functional.
The next assay deals with MCF7. Put plainly: Cytotoxicity against human MCF7 cells measured 24 hrs by MTT assay. Particulars: MCF7, 24 h. It is filed as functional, cell-based.
Assay [13] deals with Candida albicans. The experiment in a line: Antifungal activity against Candida albicans ATCC 76615 incubated for 24 hrs by microbroth dilution method. It is filed as functional. On the technique in general: Dilution methods test growth across graded concentrations, often in twofold steps.
The subject of another assay is Pichia norvegensis. Put plainly: Antifungal activity against Candida mycoderma incubated for 24 hrs. It is filed as functional.
Assay [14] deals with Mycobacterium tuberculosis. The experiment in a line: Antibacterial activity against Mycobacterium tuberculosis H37Rv (ATTCC 27294) by alamar blue based broth dilution assay. It is filed as functional.
Assay [15] concerns Mycobacterium tuberculosis. The experiment in a line: Potency index, ratio of pyrazinamide MIC to test compound MIC for antibacterial activity against Mycobacterium tuberculosis H37Rv. It is filed as functional.
Assay [16] deals with Mycobacterium tuberculosis. Put plainly: Antibacterial activity against Mycobacterium tuberculosis H37Rv assessed as reduction in relative light unit at 2 microg/ml incubated for 72 hrs by luciferase reporter phage assay relative to control. To be noted: dose 2 µg/ml. Also on record: scale not given: the % may be the effect or the level left. It is filed as functional. (In general: A reporter such as luciferase makes a cellular process visible.)

`CC(=O)OC[C@H]1O[C@@H](OCc2cn(Cc3ccc4ccccc4n3)nn2)[C@H](OC(C)=O)[C@@H](OC(C)=O)[C@@H]1OC(C)=O`: the Activity in assay [1] is listed as 76.41%.

As a reminder, the MIC is the smallest concentration in the dilution series that meets the test's criterion for growth inhibition. As to `CCn1cc(C(=O)NN2C(=O)CSC2c2ccccc2OC)c(=O)c2cc(F)c(N3CCNCC3)cc21` (stereo not drawn), the minimum inhibitory concentration (MIC) in the assay on Candida albicans [2] was 3.12 µg/mL (≈ 5.95 µM); in the assay with Pichia kudriavzevii, 1.59 µg/mL (≈ 3.03 µM); in the assay with Aspergillus niger [3], 12.5 µg/mL (≈ 23.8 µM).

One may read the IC50 as the point on the concentration scale where inhibition reaches its midpoint. Turning to `Cc1cccc(C)c1Nc1nc(OCc2cn(CCNc3cccc4cc(Cl)ccc34)nn2)nc(N(C)C)n1`, in the assay with Plasmodium falciparum [4], inhibition was half-maximal at 1690 nM (IC50).

For the compound `CS(=O)(=O)c1ccc(-c2nc(S(C)(=O)=O)nn2-c2ccc(Cl)cc2)cc1`, the “inhibition (INH)” value in the assay on Mus musculus is on record as 77.2%.

Turning to `CC1(C)CC[C@]2(C(=O)O)CC[C@]3(C)C(=CC[C@@H]4[C@@]5(C)CC[C@H](OC(=O)/C=C/c6ccccc6)C(C)(C)[C@@H]5CC[C@]43C)[C@@H]2C1`, the “inhibition zone (IZ)” value in [5] amounted to 31 mm.

In the assay on Plasmodium falciparum [4], `COc1cc(Nc2nc(OCc3cn(CCCNc4cccc5cc(Cl)ccc45)nn3)nc(N(C)C)n2)cc(OC)c1` displayed an IC50 of 1200 nM.

Turning to `COC1=CC(=O)C[C@@H](C)[C@]12Oc1c(Cl)c(OC)cc(OC)c1C2=O` [GRISEOFULVIN], the “inhibition zone (IZ)” value with Aspergillus niger [6] was 36 mm; in the assay with Candida albicans [7], 39 mm.

In the assay with Plasmodium falciparum [4], `Cc1cccc(C)c1Nc1nc(OCc2cn(CCCNc3cccc4cc(Cl)ccc34)nn2)nc(N(C)C)n1` had an IC50 of 730 nM.

Compound `CC[C@@H](CO)NCCN[C@@H](CC)CO` [ETHAMBUTOL] returned an MIC in assay [8] of 7.6 µM.

As to `COc1ccc(-c2nc(-c3ccccc3)c(-c3ccccc3)n2C(NN2CCNCC2)c2ccccc2)c(OC)c1OC` (stereo not drawn), the “inhibition zone (IZ)” value in the assay on Aspergillus niger [6] came to 27 mm; in the assay with Candida albicans [7] it was 28 mm.

Regarding `C[C@@H]([C@H](N)C(=O)N[C@H](C(=O)O)[C@H]1O[C@@H](n2ccc(=O)[nH]c2=O)[C@H](O)[C@@H]1O)[C@H](O)c1ccc(O)cn1` [NIKKOMYCIN], in the assay with Candida albicans [9], the IC50 was found to be 0.393 µg/mL (≈ 0.793 µM).

Take `O=C1Oc2cc(OCCN(N3CCOCC3)N3CCOCC3)ccc2C2c3ccccc3OC12` (stereo not drawn): the MIC in [8] was found to be 3.12 µg/mL.

Compound `O=C1NN=C(/N=C/c2cccc(Cl)c2)/C1=N\Nc1nc2c([N+](=O)[O-])cccc2s1` registered an MIC in assay [10] of 1.66 µg/mL (≈ 3.88 µM).

`c1c[nH]c(Cc2nc3ccccc3c3cc[nH]c23)c1` had an MIC in assay [11] of 3.3 µg/mL (≈ 13.3 µM).

With `CCN(CC)CCCC(C)Nc1ccnc2cc(Cl)ccc12` (stereo not drawn) [CHLOROQUINE], the MIC in the assay with Plasmodium falciparum [12] turned out to be 0.125 µg/mL (≈ 0.391 µM).

For `O=C1Nc2cc3c(-c4ccccc4)c(-c4ccccc4)oc(=O)c3cc2C(c2ccc(Cl)cc2)N1` (stereo not drawn), the MIC in assay [8] was determined as 50 µg/mL.

Take `O=C1Nc2cc3c(-c4ccccc4)c(-c4ccccc4)oc(=O)c3cc2C(c2ccccc2Cl)N1` (stereo not drawn): it took 62.5 µg/mL to inhibit growth in assay [8] (MIC).

Turning to `COc1ccc(-c2nc(-c3ccccc3)c(-c3ccccc3)n2C(NN(c2ccccc2)c2ccccc2)c2ccccc2)c(OC)c1OC` (stereo not drawn), the “inhibition zone (IZ)” value in the assay on Aspergillus niger [6] came out at 27 mm; in the assay on Candida albicans [7], 28 mm.

In the case of `NNC(=O)c1ccncc1` [ISONIAZID], the minimum inhibitory concentration (MIC) in [8] was found to be 0.2 µg/mL.

In the case of `O=C1Nc2cc3c(-c4ccccc4)c(-c4ccccc4)oc(=O)c3cc2C(c2ccc([N+](=O)[O-])cc2)N1` (stereo not drawn), the lowest concentration to inhibit growth in assay [8] (MIC) was 40 µg/mL.

`COc1cc(/C=C/c2ccc(O)cc2)cc(OC)c1` [PTEROSTILBENE] gave a concentration for half-maximal inhibition (IC50) in the assay with MCF7 of 65000 nM.

The MIC50 is the lowest concentration that inhibits either 50% of growth or 50% of the strains tested, depending on the study. In turn, `O=C(/C=C/c1ccc(Cl)cc1Cl)c1ccc(OCC(O)(Cn2cncn2)c2ccc(F)cc2F)cc1` (stereo not drawn) gave an MIC50 with Candida albicans [9] of 0.12 µg/mL (≈ 0.226 µM).

For the compound `Cc1ccc(-c2cc(C(F)(F)F)nn2-c2ccc(S(N)(=O)=O)cc2)cc1` [CELECOXIB], the “inhibition (INH)” value with Mus musculus stood at 64.9%.

As to `CC1=C(c2nnc(/N=C3\C(=O)Nc4ccc(Cl)cc43)o2)C(c2ccccc2)NC(=S)N1` (stereo not drawn), in the assay on Plasmodium falciparum [12], the minimum inhibitory concentration (MIC) amounted to 0.035 µg/mL (≈ 0.0776 µM).

For the compound `CSc1nc(-c2ccc(S(N)(=O)=O)cc2)n(-c2ccc(Cl)cc2)n1`, in the assay with Mus musculus, the “inhibition (INH)” value was determined as 80%.

With `COc1cc(/C=C/c2ccc(O)c(/C=N/NC(N)=S)c2)cc(OC)c1`, inhibition in the assay with MCF7 was half-maximal at 25000 nM (IC50).

In the case of `CS(=O)(=O)c1ccc(-c2nc(S(C)(=O)=O)nn2-c2ccc(Br)cc2)cc1`, in the assay with Mus musculus, the “inhibition (INH)” value was determined as 70.8%.

In the case of `OC(Cn1cncn1)(Cn1cncn1)c1ccc(F)cc1F` [FLUCONAZOLE], the MIC came out at 6.25 µg/mL (≈ 20.4 µM) in the assay with Candida albicans [2]; 3.12 µg/mL (≈ 10.2 µM) with Pichia kudriavzevii; 52.2 µg/mL (≈ 171 µM) with Candida albicans [13]; 12.5 µg/mL (≈ 40.8 µM) with Aspergillus niger [3]; 4 µg/mL (≈ 13.1 µM) against Pichia norvegensis. In [5], the “inhibition zone (IZ)” value is listed as 21 mm.

`O=C(NN1C(=O)CSC1c1ccc([N+](=O)[O-])cc1)c1ccc(NCN2c3ccccc3Sc3ccccc32)cc1` (stereo not drawn): the MIC in [8] was 3.12 µg/mL.

`Cn1ccnc1-c1nn2cc(-c3ccc(-c4ccc([N+](=O)[O-])cc4)cc3)nc2s1` had a minimum inhibitory concentration (MIC) in assay [14] of 3.14 µg/mL (≈ 7.8 µM).

Take `O=C1Nc2ccccc2C12C(c1cccc([N+](=O)[O-])c1)C([N+](=O)[O-])C1CSCN12` (stereo not drawn): the minimal inhibitory concentration (MIC) in assay [8] worked out at 7.6 µM. Also, in assay [15], the Ratio is 6.7.

In turn, `Clc1ccc(Cn2c[n+](CCCCCC[n+]3cnn(Cc4ccc(Cl)cc4Cl)c3)cn2)c(Cl)c1.[Br-].[Br-]` showed an MIC in the assay on Candida albicans [13] of 22.9 µg/mL.

Regarding `COc1ccc(-c2nc(-c3ccccc3)c(-c3ccccc3)n2C(NN2CCCCC2)c2ccccc2)c(OC)c1OC` (stereo not drawn), the “inhibition zone (IZ)” value with Aspergillus niger [6] is 26 mm; with Candida albicans [7] it was 29 mm.

For the compound `CO[C@H]1/C=C/O[C@@]2(C)Oc3c(C)c(O)c4c(O)c(c(/C=N/N5CCN(C)CC5)c(O)c4c3C2=O)NC(=O)/C(C)=C\C=C\[C@H](C)[C@H](O)[C@@H](C)[C@@H](O)[C@@H](C)[C@H](OC(C)=O)[C@@H]1C` [RIFAMPIN], the Activity in [16] is given as 87%.

As to `CCCCCCCCCCCCCCCC[n+]1cnn(Cc2ccc(Cl)cc2Cl)c1.[Br-]`, inhibition of growth against Candida albicans [13] (MIC) required 30 µg/mL.

In the assay with Pichia norvegensis, `O=C1c2cccc3c(Br)ccc(c23)C(=O)N1CCCn1c[n+](Cc2ccc(F)cc2F)cn1.[Br-]` had an MIC of 4 µg/mL.

For `O=C(O)c1cn(C2CC2)c2cc(N3CCNCC3)c(F)cc2c1=O` [CIPROFLOXACIN], the minimum inhibitory concentration (MIC) in assay [11] worked out at 4.7 µg/mL (≈ 14.2 µM).

With `NC(Cc1cc2ccccc2c2ccccc12)C(=O)N[C@H](C(=O)O)[C@H]1O[C@@H](n2ccc(=O)[nH]c2=O)[C@H](O)[C@@H]1O` (stereo partly drawn), in the assay with Candida albicans [9], the half-maximal inhibitory concentration (IC50) was 0.31 µg/mL (≈ 0.58 µM).

In [8], `NC(=O)c1cnccn1` [PYRAZINAMIDE] displayed an MIC of 50.1 µM.

`COc1cc(Nc2nc(OCc3cn(CCNc4cccc5cc(Cl)ccc45)nn3)nc(N(C)C)n2)cc(OC)c1`: the IC50 in the assay on Plasmodium falciparum [4] is 1150 nM.

Take `CSc1nc(-c2ccc(S(N)(=O)=O)cc2)n(-c2ccc(F)cc2)n1`: the “inhibition (INH)” value in the assay on Mus musculus is recorded as 75%.

The compound `NC(=O)OC[C@H](O)[C@@H](O)[C@H](N)C(=O)N[C@H](C(=O)O)[C@H]1O[C@@H](n2cc(C(=O)O)c(=O)[nH]c2=O)[C@H](O)[C@@H]1O` showed a minimal inhibitory concentration (MIC) with Candida albicans [9] of 320 µg/mL (≈ 614 µM).

`COc1ccc(-c2nc(-c3ccccc3)c(-c3ccccc3)n2C(NN(c2ccccc2)c2cccc3ccccc23)c2ccccc2)c(OC)c1OC` (stereo not drawn): the “inhibition zone (IZ)” value with Aspergillus niger [6] turned out to be 24 mm; with Candida albicans [7], 20 mm.

In the assay on Plasmodium falciparum [4], `COc1cc(Nc2nc(OCc3cn(CCCNc4cccc5cc(Cl)ccc45)nn3)nc(N3CCOCC3)n2)cc(OC)c1` returned an IC50 of 1730 nM.

`CCCCCCCCCCC(=O)N[C@H](C(=O)O)[C@H]1O[C@@H](n2ccc(=O)[nH]c2=O)[C@H](O)[C@@H]1O`: in the assay with Candida albicans [9], the MIC worked out at 40 µg/mL (≈ 87.8 µM).
